Results: patent US9364426B2, “Method of making coated microstructures” (Georgia Tech Research Corporation, priority 2005, dated 2016)

Experiments:
[1] = Delivery from individual coated microneedles in vitro into pig cadaver skin; format: in vitro ADME; settings: 20 s insertion into pig cadaver skin
Experimental: After removing the microneedles, fluorescence micrographs of coated microneedles and histological skin sections were collected using an Olympus IX70 fluorescent microscope with a CCD camera (RT Slider, Diagnostic Instruments). Brightfield micrographs were collected using an Olympus SZX12 stereomicroscope with a CCD camera (Leica DC 300, Leica Microsystems, Bannockburn, Ill., USA). Histological examination of pig cadaver skin was conducted on frozen sections. Pig cadaver skin was pierced with microneedles for 20 s, frozen in OCT compound (Tissue-Tek, 4583, Sakura Finetek, Torrance, Calif., USA), and cut into 10 μm-thick sections using a cryostat (Cryo-Star HM 560MV, Microm, Waldorf, Germany).

[2] = In vitro dissolution of microneedle coating in pig cadaver skin; format: in vitro ADME; settings: single microneedles n=3
Source text: To assess the in vitro dissolution time, single microneedles (n=3) coated with vitamin B, calcein, or sulforhodamine, made as in Example 1, were inserted into pig cadaver skin for 10 s or 20 s. Upon removal, these microneedles were imaged by fluorescence microscopy to detect residual coating.

[3] = cited from earlier work
[4] = coated onto microneedles; six months storage under nitrogen at room temperature; cited from earlier work
guinea pigs = settings: model antigen delivered from coated microneedles; cited from earlier work
[5] = 10 s insertion into pig cadaver skin
[6] = 20 s insertion into pig cadaver skin

Which “distribution in skin, histology sections” value [1] does the source give for `O=C(O)CN(CC(=O)O)Cc1cc2c(cc1O)Oc1cc(O)c(CN(CC(=O)O)CC(=O)O)cc1C21OC(=O)c2ccccc21` [calcein] here?
The value was “distribution of calcein along the periphery of the insertion point”.

What about the “residue on the skin after insertion” value [1] of the same molecule?
Its value is “No residue was observed”.

What about the “dissolution of microneedle coating (residual coating by fluorescence microscopy)” value [2, 5] of the same molecule?
Its value is “majority of the coating was dissolved”.

What about the “dissolution of microneedle coating (residual coating by fluorescence microscopy)” value [2, 6] of the same molecule?
Its value is “completely dissolved”.

For `COc1cc(/C=C/C(=O)CC(=O)/C=C/c2ccc(O)c(OC)c2)ccc1O` [curcumin], which solubility in water [3] is on record?
Its solubility in water is “negligible”.

For `NC(=O)CC[C@@H]1NC(=O)[C@H](Cc2ccccc2)NC(=O)[C@H](Cc2ccc(O)cc2)NC(=O)CCSSC[C@@H](C(=O)N2CCC[C@H]2C(=O)N[C@H](CCCN=C(N)N)C(=O)NCC(N)=O)NC(=O)[C@H](CC(N)=O)NC1=O` [desmopressin], which integrity after storage [4] is on record?
Its integrity after storage is 98%.

For sulforhodamine, which “dissolution of microneedle coating (residual coating by fluorescence microscopy)” value [2, 5] is on record?
The value was “majority of the coating was dissolved”.

And the “dissolution of microneedle coating (residual coating by fluorescence microscopy)” value [2, 6]?
Its value is “completely dissolved”.

B1: ovalbumin (protein, UniProt P01012 2-386, looked up)
Ovalbumin: GSIGAASMEFCFDVFKELKVHHANENIFYCPIAIMSALAMVYLGAKDSTRTQINKVVRFDKLPGFGDSIEAQCGTSVNVHSSLRDILNQITKPNDVYSFSLASRLYAEERYPILPEYLQCVKELYRGGLEPINFQTAADQARELINSWVESQTNGIIRNVLQPSSVDSQTAMVLVNAIVFKGLWEKAFKDEDTQAMPFRVTEQESKPVQMMYQIGLFRVASMASEKMKILELPFASGTMSMLVLLPDEVSGLEQLESIINFEKLTEWTSSNVMEERKIKVYLPRMKMEEKYNLTSVLMAMGITDVFSSSANLSGISSAESLKISQAVHAAHAEINEAGREVVGSAEAGVDAASVSEEFRADHPFLFCIKHIATNAVLFFGRCVSP
notes: model ovalbumin antigen delivered from coated microneedles
For B1, which immune response (guinea pigs) is on record?
Its immune response is “strong immune response”.
